The record followed here is patent US9879050B2, “Substituted urea depsipeptide analogs as activators of the CLPP endopeptidase” (priority 2013, dated 2018).

In brackets after ≈: the same amount, converted by molar mass. Like-named read-outs stand apart in the source and are kept apart here. *1 amine or outer side, *2 acyl side, *3 side chain or, on linkers, in order; H or OH if unused. Where a SMILES comes first, the peptide text is derived from it. Bridges are numbered along the chain shown (N, C = ends). [ ]: non-standard residue; d: D form. The star is where a group is joined. Phe(3,5-F2) = N[C@@H](Cc1cc(F)cc(F)c1)C(=O)O; NHPh(4-CF3) = FC(F)(F)c1ccc(N*)cc1; Heptenoyl(2E) = CCCC/C=C/C(=O)*; aThr = C[C@H](O)[C@H](N)C(=O)O; Pip = O=C(O)[C@@H]1CCCCN1; CO = O=C([*:1])[*:2] Where only a bound is given, the exact number is not on record here.

For assay [1], the target named is T1, Sa-ClpP (Staphylococcus aureus, UniProt Q2G036).
T1 construct: made in house; host or cells: E. coli BL21 (DE3)
In words: ClpP activation, EnzCheck Protease Assay with Bodipy-FL casein (second described method). The class given is biochemical, S. aureus. Summed up: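 Sa-ClpP (2 μM in master mix) with Bodipy-FL casein (2 μM in master mix) in Tris-HCl pH 8.0, 0.01% Triton X-100, compounds in 2% DMSO, triplicate. Fluorescence (ex 485/em 520 nm) followed 30 min; degradation slopes normalized to ADEP4 and DMSO controls, EC50 and % activation by four-parameter fit.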

Assay [2] concerns the target T1, Sa-ClpP. The assay is described as follows: ADEP displacement fluorescence polarization assay. The class given is binding, S. aureus. Summed up:
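Displacement of TAMRA-labelled ADEP 2591 probe (50 nM) from 1 μM Sa-ClpP, pre-equilibrated 1 h in Tris·HCl pH 8.0 with 2% DMSO, then 120 min at room temperature with compound, triplicate. Polarization (mP) read ex 530/em 579 nm, normalised to 20 μM ADEP 2378 and DMSO controls; four-parameter fit.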
(In general: Polarisation of emitted light reports the rotation of a fluorescent probe.)

A further assay concerns B. subtilis ATCC 23857. The assay is described as follows: Minimal inhibitory concentration, microbroth dilution. The conditions noted are these: Bacillus subtilis, ATCC23857, read-out: Minimal Inhibitory Concentration B. subtilis ATCC 23857. The class given is cell-based. In short, it runs like this:
(§1)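 Susceptibility testing used the CLSI dilution standard, with bacteria at ~10^5 cfu/mL exposed to a two-fold compound series beginning at 200 μM final. The endpoint is the lowest concentration showing no growth after overnight incubation (37 °C, aerobic).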

In a further assay the test system is S. aureus ATCC 29213. The assay is described as above. Format: cell-based. Particulars: Staphylococcus aureus, ATCC29213, read-out: Minimal Inhibitory Concentration S. aureus ATCC 29213. In short, it runs like this: as §1
Setting [3] is: read-out: ClpP Activation EC50 (converted).
[4] abbreviates: 1 μM Sa-ClpP, 50 nM FP probe ADEP 2591, read-out: ADEP Displacement IC50.

T1 sequence (Q2G036 whole entry): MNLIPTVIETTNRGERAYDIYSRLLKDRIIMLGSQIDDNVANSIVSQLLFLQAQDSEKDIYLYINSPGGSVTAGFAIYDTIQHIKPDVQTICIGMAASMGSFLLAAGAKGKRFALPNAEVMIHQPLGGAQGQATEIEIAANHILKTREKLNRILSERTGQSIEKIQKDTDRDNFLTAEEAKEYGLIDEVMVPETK

On to `CCCC/C=C/C(=O)N[C@@H](Cc1cc(F)cc(F)c1)C(=O)N[C@@H]1C(=O)N2CCC[C@H]2C(=O)N2CCCC[C@H]2C(=O)N[C@@H](C)C(=O)N2CCC[C@H]2C(=O)O[C@H]1C` [ADEP 2719, reference compound] ({Heptenoyl(2E)}-[Phe(3,5-F2)][aThr]P[Pip]AP; ester 2-C), for which the half-maximal effective concentration (EC50) on Sa-ClpP [1] (setting [3]) is 0.38 ± 0.01 µM. Besides, on Sa-ClpP [2] (setting [4]), the IC50 was 6.2 ± 0.3 µM.

With `C[C@@H]1C[C@H]2C(=O)OC[C@H](NC(=O)[C@H](Cc3ccccc3)NC(=O)Nc3ccc(Cl)cc3)C(=O)N3CCC[C@H]3C(=O)N3CCCC[C@H]3C(=O)N[C@@H](C)C(=O)N2C1` [Compound 3, (S)-2-(3-(4-Chlorophenyl)Ureido)-N-((2R,6S,8aS,14aS,20S,23aS)-2,6-Dimethyl-5,8,14,19,23-Pentaoxooctadecahydro-1H,5H,14H,19H-Pyrido[2,1-I]Dipyrrolo[2,1-C:2′,1′-L][1]Oxa[4,7,10,13]Tetraazacyclohexadecin-20-Yl)-3-Phenylpropanamide], the EC50 at Sa-ClpP [1] (setting [3]) is 1.5 µM. The IC50 on Sa-ClpP [2] (setting [4]) is 9.25 ± 0.5 µM. The MIC with B. subtilis ATCC 23857 was determined as 0.78 µM (≈ 0.607 µg/mL); with S. aureus ATCC 29213, 1.56 µM (≈ 1.21 µg/mL).

Regarding `C[C@@H]1C[C@H]2C(=O)OC[C@H](NC(=O)[C@H](Cc3ccccc3)NC(=O)Nc3ccc(N(C)C)cc3)C(=O)N3CCC[C@H]3C(=O)N3CCCC[C@H]3C(=O)N[C@@H](C)C(=O)N2C1` [Compound 5, (S)—N-((2R,6S,8aS,14aS,20S,23aS)-2,6-Dimethyl-5,8,14,19,23-Pentaoxooctadecahydro-1H,5H,14H,19H-Pyrido[2,1-1]Dipyrrolo[2,1-C:2′,1′-L][1]Oxa[4,7,10,13]Tetraazacyclohexadecin-20-Yl)-2-(3-(4-(Dimethylamino)Phenyl)Ureido)-3-Phenylpropanamide], the EC50 on Sa-ClpP [1] (setting [3]) is 1.5 µM. Also, the IC50 at Sa-ClpP [2] (setting [4]) was found to be 28 ± 2.3 µM. For the same molecule, the results for the MIC in the assay with B. subtilis ATCC 23857 and with S. aureus ATCC 29213 were 0.78 µM (≈ 0.614 µg/mL) and 6.25 µM (≈ 4.92 µg/mL), respectively.

Take `COc1ccc(NC(=O)N[C@@H](Cc2ccccc2)C(=O)N[C@H]2COC(=O)[C@@H]3C[C@@H](C)CN3C(=O)[C@H](C)NC(=O)[C@@H]3CCCCN3C(=O)[C@@H]3CCCN3C2=O)cc1` [Compound 6, (S)—N-((2R,6S,8aS,14aS,20S,23aS)-2,6-Dimethyl-5,8,14,19,23-Pentaoxooctadecahydro-1H,5H,14H,19H-Pyrido[2,1-1]Dipyrrolo[2,1-C:2′,1′-L][1]Oxa[4,7,10,13]Tetraazacyclohexadecin-20-Yl)-2-(3-(4-Methoxyphenyl)Ureido)-3-Phenylpropanamide]: the half-maximal effective concentration (EC50) at Sa-ClpP [1] (setting [3]) is 0.8 µM. For the same molecule, on Sa-ClpP [2] (setting [4]), the half-inhibitory concentration (IC50) amounted to 27.7 ± 1.5 µM. Also, the values for the MIC with B. subtilis ATCC 23857 and with S. aureus ATCC 29213 were 1.56 µM (≈ 1.21 µg/mL) and 3.13 µM (≈ 2.42 µg/mL), respectively.

`C[C@@H]1C[C@H]2C(=O)OC[C@H](NC(=O)[C@H](Cc3ccccc3)NC(=O)Nc3ccccc3Cl)C(=O)N3CCC[C@H]3C(=O)N3CCCC[C@H]3C(=O)N[C@@H](C)C(=O)N2C1` [Compound 7, (S)-2-(3-(2-Chlorophenyl)Ureido)-N-((2R,6S,8aS,14aS,20S,23aS)-2,6-Dimethyl-5,8,14,19,23-Pentaoxooctadecahydro-1H,5H,14H,19H-Pyrido[2,1-I]Dipyrrolo[2,1-C:2′,1′-L][1]Oxa[4,7,10,13]Tetraazacyclohexadecin-20-Yl)-3-Phenylpropanamide]: at Sa-ClpP [1] (setting [3]), the EC50 is 1.6 µM. The half-inhibitory concentration (IC50) at Sa-ClpP [2] (setting [4]) stood at 130 ± 11.3 µM. The MIC with B. subtilis ATCC 23857 turned out to be 6.25 µM (≈ 4.86 µg/mL); with S. aureus ATCC 29213, 12.5 µM (≈ 9.73 µg/mL).

On to `C[C@@H]1C[C@H]2C(=O)OC[C@H](NC(=O)[C@H](Cc3ccccc3)NC(=O)Nc3cccc(Cl)c3)C(=O)N3CCC[C@H]3C(=O)N3CCCC[C@H]3C(=O)N[C@@H](C)C(=O)N2C1` [Compound 9, (S)-2-(3-(3-Chlorophenyl)Ureido)-N-((2R,6S,8aS,14aS,20S,23aS)-2,6-Dimethyl-5,8,14,19,23-Pentaoxooctadecahydro-1H,5H,14H,19H-Pyrido[2,1-I]Dipyrrolo[2,1-C:2′,1′-L][1]Oxa[4,7,10,13]Tetraazacyclohexadecin-20-Yl)-3-Phenylpropanamide], for which the half-maximal effective concentration (EC50) on Sa-ClpP [1] (setting [3]) was 1.1 µM. In addition, the IC50 on Sa-ClpP [2] (setting [4]) was 25.4 ± 2.2 µM. For the same molecule, the MIC with B. subtilis ATCC 23857 was 1.56 µM (≈ 1.21 µg/mL); in the assay with S. aureus ATCC 29213, 3.13 µM (≈ 2.44 µg/mL).

On to `C[C@@H]1C[C@H]2C(=O)OC[C@H](NC(=O)[C@H](Cc3ccccc3)NC(=O)Nc3ccc4c(c3)CCN4C)C(=O)N3CCC[C@H]3C(=O)N3CCCC[C@H]3C(=O)N[C@@H](C)C(=O)N2C1` [Compound 11, (S)—N-((2R,6S,8aS,14aS,20S,23aS)-2,6-Dimethyl-5,8,14,19,23-Pentaoxooctadecahydro-1H,5H,14H,19H-Pyrido[2,1-I]Dipyrrolo[2,1-C:2′,1′-L][1]Oxa[4,7,10,13]Tetraazacyclohexadecin-20-Yl)-2-(3-(1-Methylindolin-5-Yl)Ureido)-3-Phenylpropanamide], for which the EC50 on Sa-ClpP [1] (setting [3]) is 1.1 µM. In addition, on Sa-ClpP [2] (setting [4]), the IC50 came out at 4.45 ± 0.3 µM. Also, the figures for the MIC in the assay with B. subtilis ATCC 23857 and in the assay with S. aureus ATCC 29213 were 1.25 µM (≈ 0.999 µg/mL) and 2.5 µM (≈ 2 µg/mL), respectively.

Regarding `Cc1ccc(NC(=O)N[C@@H](Cc2cc(F)cc(F)c2)C(=O)N[C@@H]2C(=O)N3CCC[C@H]3C(=O)N3CCCC[C@H]3C(=O)N[C@@H](C)C(=O)N3CCC[C@H]3C(=O)O[C@H]2C)cc1` [Compound 15, (S)-3-(3,5-Difluorophenyl)-N-((6S,8aS,14aS,20S,21 S,23aS)-6,21-Dimethyl-5,8,14,19,23-Pentaoxooctadecahydro-1H,5H,14H,19H-Pyrido[2,1-I]Dipyrrolo[2,1-C:2′,1′-L][1]Oxa[4,7,10,13]Tetraazacyclohexadecin-20-Yl)-2-(3-(P-Tolyl)Ureido)Propanamide], at Sa-ClpP [1] (setting [3]), the concentration giving a half-maximal response (EC50) is 0.7 µM. The IC50 at Sa-ClpP [2] (setting [4]) was 8.4 ± 0.2 µM. For the same molecule, the MIC in the assay with B. subtilis ATCC 23857 is under 0.1 µM; with S. aureus ATCC 29213, 0.6 µM (≈ 0.476 µg/mL).

For `C[C@@H]1NC(=O)[C@@H]2CCCCN2C(=O)[C@@H]2CCCN2C(=O)[C@@H](NC(=O)[C@H](Cc2cc(F)cc(F)c2)NC(=O)Nc2ccc(C(F)(F)F)cc2)[C@H](C)OC(=O)[C@@H]2CCCN2C1=O` [Compound 16, (S)-3-(3,5-Difluorophenyl)-N-((6S,8aS,14aS,20S,21 S,23aS)-6,21-Dimethyl-5,8,14,19,23-Pentaoxooctadecahydro-1H,5H,14H,19H-Pyrido[2,1-I]Dipyrrolo[2,1-C:2′,1′-L][1]Oxa[4,7,10,13]Tetraazacyclohexadecin-20-Yl)-2-(3-(4-(Trifluoromethyl)Phenyl)Ureido)Propanamide] ({NHPh(4-CF3)-CO}-[Phe(3,5-F2)][aThr]P[Pip]AP; ester 2-C), the EC50 at Sa-ClpP [1] (setting [3]) is 0.55 µM. Moreover, the IC50 at Sa-ClpP [2] (setting [4]) was found to be 8.3 ± 0.6 µM. Further, the MIC in the assay on B. subtilis ATCC 23857 and with S. aureus ATCC 29213 was 0.4 µM (≈ 0.339 µg/mL) each time.

For `C[C@@H]1NC(=O)[C@@H]2CCCCN2C(=O)[C@@H]2CCCN2C(=O)[C@@H](NC(=O)[C@H](Cc2cc(F)cc(F)c2)NC(=O)Nc2ccc3c(c2)OCO3)[C@H](C)OC(=O)[C@@H]2CCCN2C1=O` [Compound 17, (S)-2-(3-(Benzo[D][1,3]Dioxol-5-Yl)Ureido)-3-(3,5-Difluorophenyl)-N-((6S,8aS,14aS,20S,21 S,23aS)-6,21-Dimethyl-5,8,14,19,23-Pentaoxooctadecahydro-1H,5H,14H,19H-Pyrido[2,1-I]Dipyrrolo[2,1-C:2′,1′-L][1]Oxa[4,7,10,13]Tetraazacyclohexadecin-20-Yl)Propanamide], on Sa-ClpP [1], the half-maximal effective concentration (EC50) is 0.72 µM. For the same molecule, the IC50 on Sa-ClpP [2] was 7.2 ± 0.4 µM.

On to `Cc1ccc(NC(=O)N[C@@H](Cc2cc(F)cc(F)c2)C(=O)N[C@@H]2C(=O)N3CCC[C@H]3C(=O)N3CCCC[C@H]3C(=O)N[C@@H](C)C(=O)N3C[C@@H](C)C[C@H]3C(=O)O[C@H]2C)cc1` [Compound 18, (S)-3-(3,5-Difluorophenyl)-2-(3-(P-Tolyl)Ureido)-N-((2R,6S,8aS,14aS,20S,21S,23aS)-2,6,21-Trimethyl-5,8,14,19,23-Pentaoxooctadecahydro-1H,5H,14H,19H-Pyrido[2,1-I]Dipyrrolo[2,1-C:2′,1′-L][1]Oxa[4,7,10,13]Tetraazacyclohexadecin-20-Yl)Propanamide], for which the half-maximal effective concentration (EC50) at Sa-ClpP [1] (setting [3]) was 0.32 µM. In addition, the concentration for half-maximal inhibition (IC50) on Sa-ClpP [2] (setting [4]) was determined as 5.6 ± 0.3 µM. Moreover, the MIC was under 0.1 µM in the assay with B. subtilis ATCC 23857 and 0.1 µM (≈ 0.0808 µg/mL) in the assay on S. aureus ATCC 29213.

As to `C[C@H]1C[C@H]2C(=O)O[C@@H](C)[C@H](NC(=O)[C@H](Cc3cc(F)cc(F)c3)NC(=O)Nc3ccc4c(c3)OCO4)C(=O)N3CCC[C@H]3C(=O)N3CCCC[C@H]3C(=O)N[C@@H](C)C(=O)N2C1` [Compound 20, (S)-2-(3-(Benzo[D][1,3]Dioxol-5-Yl)Ureido)-3-(3,5-Difluorophenyl)-N-((2R,6S,8aS,14aS,20S,21 S,23aS)-2,6,21-Trimethyl-5,8,14,19,23-Pentaoxooctadecahydro-1H,5H,14H,19H-Pyrido[2,1-I]Dipyrrolo[2,1-C:2′,1′-L][1]Oxa[4,7,10,13]Tetraazacyclohexadecin-20-Yl)Propanamide], a half-maximal effect on Sa-ClpP [1] (EC50) was put at 0.36 µM. Moreover, the IC50 on Sa-ClpP [2] is 6 ± 0.3 µM.

The EC50 is the concentration that produces a half-maximal response. What is called IC50 is the point on the concentration scale where inhibition reaches its midpoint.
